In the SangsterLogP compilation:

assay: method code SF-HPLC, from DOI: 10.1081/jlc-100101463; details: pH 12.0

SMILES	logD
NC1=NCC(CN2CCOCC2)O1 (stereo not drawn)	-0.22
CC(C)N(CC1CN=C(N)O1)C(C)C (stereo not drawn)	0.98
CC1CCCCN1CC1CN=C(N)O1 (stereo not drawn)	0.73
CC1CCN(CC2CN=C(N)O2)CC1 (stereo not drawn)	0.91
CC(=O)c1cccc(OCC2CN=C(N)O2)c1 (stereo not drawn)	1.31
CC1CN(CC2CN=C(N)O2)CC(C)O1 (stereo not drawn)	0.16
Cc1cc(C)cc(OCC2CN=C(N)O2)c1 (stereo not drawn)	2.24
CC(C)(C)c1ccc(OCC2CN=C(N)O2)cc1 (stereo not drawn)	2.87
CC1CCCC(C)N1CC1CN=C(N)O1 (stereo not drawn)	0.94
NC1=NCC(CN2CCC(C(=O)c3ccccc3)CC2)O1 (stereo not drawn)	1.05
NC1=NCC(CN2CCC(c3ccccc3)CC2)O1 (stereo not drawn)	1.96
NC1=NCC(CN2CCC(Cc3ccccc3)CC2)O1 (stereo not drawn)	2.38
NC1=NCC(CN2CC=CCC2)O1 (stereo not drawn)	0.19
